Structures are written as SMILES. A value given as a limit tells only on which side of the number the result lay.

The subject of assay [1] is Lb. sake. The assay can be described thus: Test in milk. It counts as cell-based, Lactobacillus sake. The settings on record: for Control of growth: 2000 ppm, TMGB010605. The method, then: 8.9 ml samples of UHT milk containing 0.5% glucose and the indicator bromocresol purple (0.01%) were prepared and sterilised by autoclaving. The pH before APP addition was pH 6.65. Appropriate stock solutions of APP batch number APP20010215 (at 138 mg/ml) were prepared and filter sterilised. 1 ml of each was added to the milk to prepare tests containing 0, 1000 and 2000 ppm APP. Tests were then inoculated with 100 μl of diluted overnight broth cultures or spore suspensions to give a final inoculum level of ca. 10^3 cfu/ml. These and uninoculated tests were incubated at 20 and 8° C. and examined daily for visible changes compared to uninoculated control.

In assay [2] the test system is Lb. sake A10. Briefly: Bioscreen growth inhibition test. It counts as cell-based, Lactobacillus sake. To be noted: for APP level causing significant inhibition / APP level causing total inhibition: BS010411, 24 h at 30° C. The protocol:
(§1) For broth cultures and Bioscreen testing most bacteria were grown in Brain Heart Infusion (BHI, Oxoid, pH 7.4). Lactobacillus sake A10 was grown in de Man, Rogosa, Sharpe medium ([…], Oxoid). Yeasts were grown in Sabouraud Liquid medium (SLM, Oxoid). Most bacteria were cultured at 30° C. Lactic acid bacteria were grown on solid medium in enriched CO2 atmosphere. Clostridium species were grown in Reinforced Clostridial Medium (RCM) at 37° C. anaerobically. Brochothrix thermosphacta fungi and yeasts were grown at 25° C. Fungi were cultured on Malt Extract Agar (MEA, Oxoid).
(§2) An automated Microbiology Reader Bioscreen C was used to measure growth curves of the strains in the presence and absence of APP. The Bioscreen C measures the development of turbidity (i.e. growth) kinetically by vertical photometry in 200 wells of a honeycomb microtitre plate, simultaneously. The system consists of a Bioscreen C analyser, which is an incubator and measurement unit, integrated with a PC, software (BioLink v 5.30), printer and a ‘Honeycomb 2’ cuvette multiwell plate. Growth curve data can be analysed within the BioLink software or exported to programs such as Excel.
(§3) Broth culture media were dispensed in 270 μl volumes into the wells as directed. Serial dilutions of a filter-sterilised APP stock solution were then dispensed into the same wells, as appropriate. The wells were inoculated with 30 μl of an appropriately diluted overnight broth culture or spore suspension, to give a final inoculum level of […]. The tests were incubated in the Bioscreen C for either 24 h at 30° C., or 72 h at 25° C. (depending on the micro-organism under investigation) with readings taken every 20 minutes after the trays were shaken. After the incubation period was complete the data were exported to Excel for analysis.

Assay [3] deals with Ps. fluorescens 327. The assay can be described thus: Test in cooked minced chicken slurry. The settings on record: 2000 ppm, minced chicken slurry at 8° C. It counts as cell-based, Pseudomonas fluorescens. The protocol: 1 kg of minced chicken (mainly lean meat) was purchased from the local butcher. This was mixed with 1 litre of BHI, mixed and dispensed as 100 g samples prior to autoclaving. When still warm, the meat was re-mixed thoroughly. When cooked, the meat was inoculated with 1 ml of 10^5 spores or cells (from an overnight broth), and re-mixed. The samples were then divided into 3×25 g portions, to which 0.5 ml of filter-sterilised APP20010215 was added (as 5% or 10% stock solutions) or water. An initial viable count was taken, and the samples then incubated at 8° C. and tested twice weekly. The pH of the chicken slurry was 6.42.

Assay [4] relates to B. cereus 3.046. The assay can be described thus: Bioscreen growth inhibition test. It counts as cell-based, Bacillus cereus. To be noted: BS010510, 24 h at 30° C., APP20010213. The protocol: as §1, §2, §3
The subject of assay [5] is B. cereus Campden. Briefly: Bioscreen growth inhibition test. Type of assay: cell-based, Bacillus cereus. To be noted: BS010411, 24 h at 30° C. The method, then:
as §1, §2, §3

Assay [6] relates to B. cereus 204. The assay can be described thus: Bioscreen growth inhibition test. It counts as cell-based, Bacillus cereus. To be noted: BS010411, 24 h at 30° C. The protocol: as §1, §2, §3
For assay [7], the system named is Salm Typhimurium S29. The assay can be described thus: Chicken soup trial at 8° C. Type of assay: cell-based, Salmonella Typhimurium. To be noted: chicken soup at 8° C., TCSM010521, APP215. From the text: A local supermarket brand of cream of chicken soup was used as a model food system. 600 g packs were purchased from the local supermarket. This was a ‘fresh home-made type’ of soup that was stored in the chill cabinet, with a short shelf life. It was chosen because it is a rich, nutritious food system containing a range of food components including meat, dairy and vegetable.
Ingredients were labelled as: chicken stock (water, duck fat, chicken, salt, flavourings, yeast extracts, pork gelatine, glucose syrup, vegetable concentrate, milk protein, sugar, malto-dextrin, vegetable oil, citric acid, lactose, chicken fat), ilk, chicken (9%), cream (8%), onion, potato, vegetable oil, modified maize starch, wheat flour, lemon juice, salt, white pepper. pH 5.912. Protein: 3.3%; carbohydrate: 4.7%; fat: 7.2%; fibre: 0.2%; sodium: 0.1%
For the test the soup was mixed 2:1 in water (to facilitate sampling and mixing) and sterilised by autoclaving at 121° C. for 15 minutes. For each experiment the pH of the soup was recorded; this was between pH 5.79-5.88.
For TCS010521/8 (incubated at 8° C.), samples were prepared in 27.8 g quantities. 1.5 g of an APP stock solution was added, and the tests inoculated with 0.3 ml of a suitably diluted cell or spore suspension to give a final inoculum of ca. 10^3 cfu/g. APP was tested at 0, 500 and 1000 ppm, and batch number APP20010213 (at 169 mg/ml) was used. […]

The subject of assay [8] is TAVC. The assay can be described thus: Inoculated test in raw meat. It counts as cell-based. The settings on record: 2000 ppm; inoculated raw meat at 8° C., TRM010620; TAVC 10^6 rising to >10^7 cfu/g. The method, then:
Fresh beef steak was purchased from the local butcher, and minced on clean machinery. The raw meat (ca. pH 6.2) was divided into 8×90 samples and inoculated-with 10^3 cfu/ml of test organisms. The meat was mixed thoroughly using a stomacher. 10 g of SDW or 2% APP (Batch number APP20010215) was added, and the meat was again thoroughly mixed. An initial viable count was taken, the meat was incubated at 8° C., and sampled on the following days using non-selective agar (MPCA) and selective agar: XLD for Salmonella; Oxford selective agar (Listeria monocytogenes); and STAA agar (Brochothrix thermosphacta). The pH of the raw meat was pH 5.3.

On to `O=C1CC(CO)OC=C1O` (stereo not drawn) [APP, Ascopyrone P], for which the Control of growth entry in assay [1] (milk at 8° C.) and in assay [1] (milk at 20° C.) was “No control observed” in each case. Moreover, the “No inhibition (effect on growth of target organism by 2000 ppm APP)” value in assay [1] (Milk at 8° C. pH 6.65) and in assay [1] (Milk at 20° C. pH 6.65) was “Lb. sake” each time. Also, the “APP level causing significant inhibition” value in assay [2] (APP20010213) worked out at 250 ppm; in assay [2] (APP20010215), 250 ppm; in assay [4], 2000 ppm; in assay [5] (APP20010213), 2000 ppm; in assay [5] (APP20010215), 2000 ppm; in assay [6] (APP20010213) it was 4000 ppm. Further, in assay [6] (APP20010215), the “APP level causing significant inhibition” value turned out to be 2000 ppm. For the same compound, the “APP level causing total inhibition” value in assay [2] (APP20010213) is given as 500 ppm; in assay [2] (APP20010215) it was 500 ppm; in assay [4] it was 3000 ppm; in assay [5] (APP20010213), 4000 ppm; in assay [5] (APP20010215), over 4000 ppm; in assay [6] (APP20010213), over 4000 ppm. For the same compound, the “APP level causing total inhibition” value in assay [6] (APP20010215) is on record as 4000 ppm. The “Total inhibition (effect on growth of target organism by 2000 ppm APP)” value in assay [2] (Lab media at optimum temperature) is recorded as “Lb. sake”. Also, the “10^6 reached at” value in assay [3] (TCC010704, controls 3 d) amounted to 10 d. Also, in assay [3] (pH 6.42, TCC010704), the Effect on growth entry is given as “No total inhibition”. The “Total inhibition for” value is on record as “Total inhibition by 500 ppm for 25 d” in assay [7] (500 ppm) and “Total inhibition by 1000 ppm for >27 d” in assay [7] (1000 ppm). Besides, the “Effect of APP” value in assay [8] is “No significant effect”.

Values taken from patent US20030203963A1, “Antimicrobial agent” (priority 2001, published 2003).
